Assay results from PubChem BioAssay AID588725 (The Scripps Research Institute Molecular Screening Center, 2011).
Activity calls are given as the source filed them.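 The calls were made as follows: active = versus DMSO control, mean enzyme activity at or below 80% or at or above 120%; inactive = between 80% and 120% mean enzyme activity.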

Key:
Assay in all cases: modulation of a 48-kinase panel, late-stage follow-up, selectivity assay for KLF5 inhibitor project, biochemical, 33P-ATP radiometric, Reaction Biology, powder sample (AID 588725)
CDK5/p35 = conditions: 33P-ATP radiometric activity, at 10 µM
[1] = biological target: RAC-beta serine/threonine-protein kinase (Homo sapiens) (UniProt P31751); conditions: 33P-ATP radiometric activity, AKT2, at 10 µM
PKCb2 = conditions: 33P-ATP radiometric activity, at 10 µM
PKCepsilon = conditions: 33P-ATP radiometric activity, at 10 µM
[2] = biological target: Glycogen synthase kinase-3 alpha (Homo sapiens) (UniProt P49840); conditions: 33P-ATP radiometric activity, GSK3a, at 10 µM
[3] = biological target: Cyclin-dependent kinase 1 (Homo sapiens) (UniProt P06493); conditions: 33P-ATP radiometric activity, at 10 µM
Aurora A = conditions: 33P-ATP radiometric activity, at 10 µM
[4] = biological target: Mitogen-activated protein kinase 1 (Homo sapiens) (UniProt P28482); conditions: 33P-ATP radiometric activity, ERK2, at 10 µM
[5] = biological target: Mitogen-activated protein kinase 12 (Homo sapiens) (UniProt P53778); conditions: 33P-ATP radiometric activity, P38g, at 10 µM
P38d = conditions: 33P-ATP radiometric activity, at 10 µM
[6] = biological target: Inhibitor of nuclear factor kappa-B kinase subunit alpha (Homo sapiens) (UniProt O15111); conditions: 33P-ATP radiometric activity, IKKa, at 10 µM
[7] = biological target: Mitogen-activated protein kinase 9 (Homo sapiens) (UniProt P45984); conditions: 33P-ATP radiometric activity, JNK2, at 10 µM
[8] = biological target: Protein kinase C iota type (Homo sapiens) (UniProt P41743); conditions: 33P-ATP radiometric activity, PKCiota, at 10 µM
[9] = biological target: Mitogen-activated protein kinase 14 (Homo sapiens) (UniProt Q16539); conditions: 33P-ATP radiometric activity, P38a, at 10 µM
p70S6Kb = conditions: 33P-ATP radiometric activity, at 10 µM
JAK1 = conditions: 33P-ATP radiometric activity, at 10 µM
PKCa = conditions: 33P-ATP radiometric activity, at 10 µM
[10] = biological target: Mitogen-activated protein kinase 3 (Homo sapiens) (UniProt P27361); conditions: 33P-ATP radiometric activity, ERK1, at 10 µM
[11] = biological target: Epidermal growth factor receptor (Homo sapiens) (UniProt P00533); conditions: 33P-ATP radiometric activity, EGFR, at 10 µM
MEK2 = conditions: 33P-ATP radiometric activity, at 10 µM
[12] = biological target: RAC-alpha serine/threonine-protein kinase (Homo sapiens) (UniProt P31749); conditions: 33P-ATP radiometric activity, AKT1, at 10 µM
[13] = biological target: Serine/threonine-protein kinase B-raf (Homo sapiens) (UniProt P15056); conditions: 33P-ATP radiometric activity, BRAF, at 10 µM
PKCb1 = conditions: 33P-ATP radiometric activity, at 10 µM
[14] = biological target: Glycogen synthase kinase-3 beta (Homo sapiens) (UniProt P49841); conditions: 33P-ATP radiometric activity, GSK3b, at 10 µM
[15] = biological target: RAC-gamma serine/threonine-protein kinase (Homo sapiens) (UniProt Q9Y243); conditions: 33P-ATP radiometric activity, AKT3, at 10 µM
MEKK3 = conditions: 33P-ATP radiometric activity, at 10 µM
CDK5/p25 = conditions: 33P-ATP radiometric activity, at 10 µM
[16] = biological target: Serine/threonine-protein kinase D3 (Homo sapiens) (UniProt O94806); conditions: 33P-ATP radiometric activity, PKCnu, at 10 µM
[17] = biological target: Mitogen-activated protein kinase 10 (Homo sapiens) (UniProt P53779); conditions: 33P-ATP radiometric activity, JNK3, at 10 µM
JNK1 = conditions: 33P-ATP radiometric activity, at 10 µM
[18] = biological target: Ribosomal protein S6 kinase beta-1 (Homo sapiens) (UniProt P23443); conditions: 33P-ATP radiometric activity, p70S6K, at 10 µM
[19] = biological target: Dual specificity mitogen-activated protein kinase kinase 1 (Homo sapiens) (UniProt Q02750); conditions: 33P-ATP radiometric activity, MEK1, at 10 µM
[20] = biological target: Protein kinase C zeta type (Homo sapiens) (UniProt Q05513); conditions: 33P-ATP radiometric activity, PKCzeta, at 10 µM
[21] = biological target: Receptor tyrosine-protein kinase erbB-4 (Homo sapiens) (UniProt Q15303); conditions: 33P-ATP radiometric activity, ERBB4, at 10 µM
MEKK2 = conditions: 33P-ATP radiometric activity, at 10 µM
[22] = biological target: Protein kinase C delta type (Homo sapiens) (UniProt Q05655); conditions: 33P-ATP radiometric activity, PKCd, at 10 µM
[23] = biological target: Protein kinase C theta type (Homo sapiens) (UniProt Q04759); conditions: 33P-ATP radiometric activity, PKCtheta, at 10 µM
PKCeta = conditions: 33P-ATP radiometric activity, at 10 µM
[24] = biological target: Receptor tyrosine-protein kinase erbB-2 (Homo sapiens) (UniProt P04626); conditions: 33P-ATP radiometric activity, ERBB2, at 10 µM
[25] = biological target: Serine/threonine-protein kinase D1 (Homo sapiens) (UniProt Q15139); conditions: 33P-ATP radiometric activity, PKCmu, at 10 µM
[26] = biological target: Cyclin-dependent kinase 2 (Homo sapiens) (UniProt P24941); conditions: 33P-ATP radiometric activity, at 10 µM
[27] = biological target: Protein kinase C gamma type (Homo sapiens) (UniProt P05129); conditions: 33P-ATP radiometric activity, PKCg, at 10 µM
MKK6 = conditions: 33P-ATP radiometric activity, at 10 µM
MLK3 = conditions: 33P-ATP radiometric activity, at 10 µM
P38b = conditions: 33P-ATP radiometric activity, at 10 µM
[28] = biological target: Inhibitor of nuclear factor kappa-B kinase subunit beta (Homo sapiens) (UniProt O14920); conditions: 33P-ATP radiometric activity, IKKb, at 10 µM

Cyclin-dependent kinase 1 (Homo sapiens), sequence (P06493 whole entry, looked up): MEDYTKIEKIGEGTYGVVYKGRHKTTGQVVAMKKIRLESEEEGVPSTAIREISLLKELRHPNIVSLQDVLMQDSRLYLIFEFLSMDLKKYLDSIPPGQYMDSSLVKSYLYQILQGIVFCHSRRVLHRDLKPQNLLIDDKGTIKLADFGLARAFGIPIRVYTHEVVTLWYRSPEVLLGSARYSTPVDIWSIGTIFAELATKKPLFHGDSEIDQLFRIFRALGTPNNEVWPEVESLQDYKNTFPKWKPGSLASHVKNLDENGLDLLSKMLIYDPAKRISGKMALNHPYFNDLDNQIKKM
Receptor tyrosine-protein kinase erbB-2 (Homo sapiens), sequence (P04626 whole entry, looked up): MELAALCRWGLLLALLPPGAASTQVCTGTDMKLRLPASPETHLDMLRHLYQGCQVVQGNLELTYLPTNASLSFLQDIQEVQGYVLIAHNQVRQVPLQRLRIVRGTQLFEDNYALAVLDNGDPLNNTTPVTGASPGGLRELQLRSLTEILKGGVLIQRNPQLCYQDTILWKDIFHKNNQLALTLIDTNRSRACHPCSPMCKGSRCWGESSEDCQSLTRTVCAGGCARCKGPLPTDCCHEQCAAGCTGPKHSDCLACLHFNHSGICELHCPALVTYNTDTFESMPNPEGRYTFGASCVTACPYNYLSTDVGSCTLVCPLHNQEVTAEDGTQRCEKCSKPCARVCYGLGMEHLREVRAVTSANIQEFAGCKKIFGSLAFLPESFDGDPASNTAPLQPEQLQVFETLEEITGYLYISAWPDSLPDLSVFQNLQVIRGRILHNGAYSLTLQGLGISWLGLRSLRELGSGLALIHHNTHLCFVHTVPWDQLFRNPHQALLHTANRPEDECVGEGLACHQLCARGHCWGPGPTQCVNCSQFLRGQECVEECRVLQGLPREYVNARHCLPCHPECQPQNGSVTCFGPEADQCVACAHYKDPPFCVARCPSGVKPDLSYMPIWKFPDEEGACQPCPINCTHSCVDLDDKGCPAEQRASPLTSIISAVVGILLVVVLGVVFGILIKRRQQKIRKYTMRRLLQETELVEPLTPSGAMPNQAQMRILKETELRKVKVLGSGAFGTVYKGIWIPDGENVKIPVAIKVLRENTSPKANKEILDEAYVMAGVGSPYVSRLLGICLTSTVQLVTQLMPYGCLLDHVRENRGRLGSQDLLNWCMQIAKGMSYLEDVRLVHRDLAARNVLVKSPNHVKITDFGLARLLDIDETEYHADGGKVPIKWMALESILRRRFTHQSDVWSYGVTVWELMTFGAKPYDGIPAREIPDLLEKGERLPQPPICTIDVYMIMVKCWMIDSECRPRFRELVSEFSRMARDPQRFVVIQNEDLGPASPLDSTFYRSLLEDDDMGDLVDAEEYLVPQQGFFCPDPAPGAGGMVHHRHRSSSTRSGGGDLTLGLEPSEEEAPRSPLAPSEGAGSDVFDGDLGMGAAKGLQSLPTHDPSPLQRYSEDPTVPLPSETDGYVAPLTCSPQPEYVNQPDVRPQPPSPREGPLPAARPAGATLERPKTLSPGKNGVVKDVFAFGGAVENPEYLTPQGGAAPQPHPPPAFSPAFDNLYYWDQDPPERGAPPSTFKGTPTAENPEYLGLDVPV
Mitogen-activated protein kinase 12 (Homo sapiens), sequence (P53778 whole entry, looked up): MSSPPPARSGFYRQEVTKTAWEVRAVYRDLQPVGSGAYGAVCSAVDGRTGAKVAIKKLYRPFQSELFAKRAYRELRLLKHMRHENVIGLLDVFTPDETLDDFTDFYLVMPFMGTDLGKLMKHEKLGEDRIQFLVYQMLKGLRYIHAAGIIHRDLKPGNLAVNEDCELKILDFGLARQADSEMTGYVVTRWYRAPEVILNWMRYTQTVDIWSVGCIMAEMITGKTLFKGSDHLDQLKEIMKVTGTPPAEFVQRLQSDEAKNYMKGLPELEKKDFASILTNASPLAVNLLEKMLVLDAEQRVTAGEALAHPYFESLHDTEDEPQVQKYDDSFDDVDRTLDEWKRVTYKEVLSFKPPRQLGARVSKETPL
Mitogen-activated protein kinase 10 (Homo sapiens), sequence (P53779 whole entry, looked up): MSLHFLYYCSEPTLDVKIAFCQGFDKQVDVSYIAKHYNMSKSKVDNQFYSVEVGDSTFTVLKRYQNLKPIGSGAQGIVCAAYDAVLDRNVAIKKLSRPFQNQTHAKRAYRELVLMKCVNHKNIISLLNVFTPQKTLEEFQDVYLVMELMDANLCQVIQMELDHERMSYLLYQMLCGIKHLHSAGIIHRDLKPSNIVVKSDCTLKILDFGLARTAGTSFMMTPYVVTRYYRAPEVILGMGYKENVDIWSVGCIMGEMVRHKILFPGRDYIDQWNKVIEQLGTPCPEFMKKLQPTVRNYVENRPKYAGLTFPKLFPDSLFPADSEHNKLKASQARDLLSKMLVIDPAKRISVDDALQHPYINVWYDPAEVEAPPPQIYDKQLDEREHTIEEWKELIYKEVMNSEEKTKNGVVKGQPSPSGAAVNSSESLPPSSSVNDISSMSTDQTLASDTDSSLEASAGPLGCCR
RAC-gamma serine/threonine-protein kinase (Homo sapiens), sequence (Q9Y243 whole entry, looked up): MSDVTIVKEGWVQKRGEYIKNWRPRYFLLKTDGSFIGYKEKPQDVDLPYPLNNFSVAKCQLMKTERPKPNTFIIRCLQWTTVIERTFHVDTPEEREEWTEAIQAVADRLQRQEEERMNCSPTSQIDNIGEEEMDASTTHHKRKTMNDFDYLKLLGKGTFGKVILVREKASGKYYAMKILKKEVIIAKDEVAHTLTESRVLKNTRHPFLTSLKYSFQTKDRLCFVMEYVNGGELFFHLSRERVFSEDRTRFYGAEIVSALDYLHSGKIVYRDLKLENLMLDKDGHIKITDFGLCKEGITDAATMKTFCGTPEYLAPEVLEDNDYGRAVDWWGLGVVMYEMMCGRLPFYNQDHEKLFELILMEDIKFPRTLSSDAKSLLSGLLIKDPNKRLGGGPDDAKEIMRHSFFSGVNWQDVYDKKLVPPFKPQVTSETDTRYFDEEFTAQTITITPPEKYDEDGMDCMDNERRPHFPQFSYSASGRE
Serine/threonine-protein kinase D1 (Homo sapiens), sequence (Q15139 whole entry, looked up): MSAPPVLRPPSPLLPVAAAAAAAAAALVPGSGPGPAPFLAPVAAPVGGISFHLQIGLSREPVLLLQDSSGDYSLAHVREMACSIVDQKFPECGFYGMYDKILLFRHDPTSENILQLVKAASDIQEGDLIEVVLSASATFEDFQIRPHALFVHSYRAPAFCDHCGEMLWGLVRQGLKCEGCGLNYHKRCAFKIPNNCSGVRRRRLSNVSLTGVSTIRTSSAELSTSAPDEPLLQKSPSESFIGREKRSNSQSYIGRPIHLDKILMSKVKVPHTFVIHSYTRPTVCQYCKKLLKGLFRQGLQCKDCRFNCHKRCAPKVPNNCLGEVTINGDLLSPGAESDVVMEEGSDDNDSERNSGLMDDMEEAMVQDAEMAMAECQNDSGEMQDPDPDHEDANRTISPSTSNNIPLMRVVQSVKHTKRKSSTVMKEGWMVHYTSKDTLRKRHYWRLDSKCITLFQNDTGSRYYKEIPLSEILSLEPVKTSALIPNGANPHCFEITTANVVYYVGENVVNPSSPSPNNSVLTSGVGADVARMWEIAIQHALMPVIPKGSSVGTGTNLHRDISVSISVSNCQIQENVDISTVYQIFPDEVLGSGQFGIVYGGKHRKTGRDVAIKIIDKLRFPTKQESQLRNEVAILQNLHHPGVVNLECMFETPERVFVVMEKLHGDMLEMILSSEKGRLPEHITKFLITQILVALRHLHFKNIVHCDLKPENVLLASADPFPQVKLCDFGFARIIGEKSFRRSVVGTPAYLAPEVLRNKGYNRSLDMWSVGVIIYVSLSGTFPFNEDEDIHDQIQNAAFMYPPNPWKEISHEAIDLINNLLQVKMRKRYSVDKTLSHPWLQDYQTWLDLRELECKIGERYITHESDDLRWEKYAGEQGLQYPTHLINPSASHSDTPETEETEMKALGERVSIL
Glycogen synthase kinase-3 alpha (Homo sapiens), sequence (P49840 whole entry, looked up): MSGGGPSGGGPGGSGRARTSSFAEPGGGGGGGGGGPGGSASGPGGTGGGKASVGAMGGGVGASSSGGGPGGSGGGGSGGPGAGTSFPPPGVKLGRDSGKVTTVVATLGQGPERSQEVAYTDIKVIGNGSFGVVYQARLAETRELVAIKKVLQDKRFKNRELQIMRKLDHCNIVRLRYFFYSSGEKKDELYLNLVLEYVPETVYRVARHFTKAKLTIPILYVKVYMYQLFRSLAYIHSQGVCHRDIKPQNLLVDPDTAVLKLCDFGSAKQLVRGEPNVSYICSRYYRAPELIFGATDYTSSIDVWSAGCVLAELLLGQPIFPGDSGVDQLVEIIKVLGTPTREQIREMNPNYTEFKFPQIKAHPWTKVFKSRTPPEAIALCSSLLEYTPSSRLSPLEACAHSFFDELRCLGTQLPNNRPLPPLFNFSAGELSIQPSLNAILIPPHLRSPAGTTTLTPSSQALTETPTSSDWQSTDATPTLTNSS
Mitogen-activated protein kinase 14 (Homo sapiens), sequence (Q16539 whole entry, looked up): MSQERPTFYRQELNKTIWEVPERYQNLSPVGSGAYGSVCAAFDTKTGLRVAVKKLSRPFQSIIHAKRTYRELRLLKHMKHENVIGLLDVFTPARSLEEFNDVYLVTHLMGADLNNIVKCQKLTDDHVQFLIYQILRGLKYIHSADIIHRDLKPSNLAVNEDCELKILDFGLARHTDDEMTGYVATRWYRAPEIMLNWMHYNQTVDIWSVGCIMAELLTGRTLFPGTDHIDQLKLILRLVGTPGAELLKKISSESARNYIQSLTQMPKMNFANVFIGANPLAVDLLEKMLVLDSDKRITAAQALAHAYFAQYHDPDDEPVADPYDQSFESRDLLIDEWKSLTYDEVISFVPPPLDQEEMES
Mitogen-activated protein kinase 1 (Homo sapiens), sequence (P28482 whole entry, looked up): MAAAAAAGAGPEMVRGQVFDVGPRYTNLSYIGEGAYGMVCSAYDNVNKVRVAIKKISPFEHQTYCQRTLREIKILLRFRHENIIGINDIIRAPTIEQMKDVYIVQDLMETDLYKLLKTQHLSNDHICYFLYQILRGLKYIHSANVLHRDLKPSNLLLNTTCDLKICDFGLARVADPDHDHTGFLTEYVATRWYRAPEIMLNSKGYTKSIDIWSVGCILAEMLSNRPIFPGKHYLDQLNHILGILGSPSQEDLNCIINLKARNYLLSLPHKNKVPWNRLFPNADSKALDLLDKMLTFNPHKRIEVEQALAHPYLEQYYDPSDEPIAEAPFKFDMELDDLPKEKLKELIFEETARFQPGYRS

- enzyme activity (CDK5/p35): 106% (inactive)
- enzyme activity [1]: 107% (inactive)
- enzyme activity (PKCb2): 102% (inactive)
- enzyme activity (PKCepsilon): 100% (inactive)
- enzyme activity [2]: 104% (inactive)
- enzyme activity ([3]; CDK1/cyclin A): 106% (inactive)
- enzyme activity ([3]; CDK1/cyclin B): 103% (inactive)
- enzyme activity (Aurora A): 95.4% (inactive)
- enzyme activity [4]: 101% (inactive)
- enzyme activity [5]: 105% (inactive)
- enzyme activity (P38d): 98.3% (inactive)
- enzyme activity [6]: 97.3% (inactive)
- enzyme activity [7]: 108% (inactive)
- enzyme activity [8]: 103% (inactive)
- enzyme activity [9]: 96.3% (inactive)
- enzyme activity (p70S6Kb): 100% (inactive)
- enzyme activity (JAK1): 91.3% (inactive)
- enzyme activity (PKCa): 99.6% (inactive)
- enzyme activity [10]: 103% (inactive)
- enzyme activity [11]: 98% (inactive)
- enzyme activity (MEK2): 105% (inactive)
- enzyme activity [12]: 104% (inactive)
- enzyme activity [13]: 100% (inactive)
- enzyme activity (PKCb1): 98.5% (inactive)
- enzyme activity [14]: 112% (inactive)
- enzyme activity [15]: 98.7% (inactive)
- enzyme activity (MEKK3): 99.6% (inactive)
- enzyme activity (CDK5/p25): 108% (inactive)
- enzyme activity [16]: 105% (inactive)
- enzyme activity [17]: 102% (inactive)
- enzyme activity (JNK1): 101% (inactive)
- enzyme activity [18]: 104% (inactive)
- enzyme activity [19]: 108% (inactive)
- enzyme activity [20]: 102% (inactive)
- enzyme activity [21]: 97% (inactive)
- enzyme activity (MEKK2): 102% (inactive)
- enzyme activity [22]: 104% (inactive)
- enzyme activity [23]: 98.8% (inactive)
- enzyme activity (PKCeta): 107% (inactive)
- enzyme activity [24]: 104% (inactive)
- enzyme activity [25]: 106% (inactive)
- enzyme activity ([26]; CDK2/cyclin A): 95.5% (inactive)
- enzyme activity ([26]; CDK2/cyclin E): 113% (inactive)
- enzyme activity [27]: 100% (inactive)
- enzyme activity (MKK6): 103% (inactive)
- enzyme activity (MLK3): 101% (inactive)
- enzyme activity (P38b): 95.7% (inactive)
- enzyme activity [28]: 107% (inactive)
Compound: CN(C(=O)CNC(=O)/C=C/c1cccc(Cl)c1)C1CCS(=O)(=O)CC1
